Results taken from patent US20080045504A1, “Benzonitrile Derivatives to Treat Musculoskeletal Frailty” (PFIZER PRODUCTS INC., priority 2004, published 2008).

biological target: T1, recombinant human androgen receptor (hAR) (Homo sapiens, UniProt P10275); test: Human androgen receptor binding analysis (3H-DHT competitive binding)
T1 construct: made in house; host or cells: baculovirus/Sf9 insect cells (crude extract)
T1 sequence (P10275 1-920): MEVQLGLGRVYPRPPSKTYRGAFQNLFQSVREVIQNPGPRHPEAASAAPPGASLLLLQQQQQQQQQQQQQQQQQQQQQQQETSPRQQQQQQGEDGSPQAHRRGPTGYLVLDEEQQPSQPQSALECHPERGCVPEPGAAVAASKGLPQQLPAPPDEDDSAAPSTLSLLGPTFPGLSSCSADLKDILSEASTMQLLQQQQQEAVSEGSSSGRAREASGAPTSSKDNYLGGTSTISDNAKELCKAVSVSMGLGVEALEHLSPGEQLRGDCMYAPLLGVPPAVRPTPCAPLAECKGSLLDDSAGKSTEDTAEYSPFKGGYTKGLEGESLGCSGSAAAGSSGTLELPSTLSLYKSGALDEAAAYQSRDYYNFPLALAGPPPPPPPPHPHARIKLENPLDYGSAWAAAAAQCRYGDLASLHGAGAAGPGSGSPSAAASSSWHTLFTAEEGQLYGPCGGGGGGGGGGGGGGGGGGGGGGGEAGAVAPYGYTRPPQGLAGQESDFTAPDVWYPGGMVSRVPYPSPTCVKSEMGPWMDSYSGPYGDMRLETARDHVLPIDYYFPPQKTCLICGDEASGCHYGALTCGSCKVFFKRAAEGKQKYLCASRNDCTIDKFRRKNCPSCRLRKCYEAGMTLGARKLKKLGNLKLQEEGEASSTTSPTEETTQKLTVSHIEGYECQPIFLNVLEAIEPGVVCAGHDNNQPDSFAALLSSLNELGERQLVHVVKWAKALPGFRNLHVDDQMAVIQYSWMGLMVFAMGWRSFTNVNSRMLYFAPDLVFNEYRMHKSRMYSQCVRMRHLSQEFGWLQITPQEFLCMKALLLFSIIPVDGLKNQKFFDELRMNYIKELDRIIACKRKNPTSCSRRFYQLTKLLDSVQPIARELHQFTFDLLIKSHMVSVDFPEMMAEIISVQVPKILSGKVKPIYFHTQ
Method: The following is a brief description of the assay that determines the affinity of a compound for the recombinant human androgen receptor (hAR). Competitive binding analysis is performed on baculovirus/Sf9 generated hAR extracts in the presence or absence of differing concentrations of drug and a fixed concentration of ^3H-dihydrotestosterone (^3H-DHT) as tracer. This binding assay method is a modification of a protocol previously described (Chang, et. al. J. Steroid Biochem. 20(1):11-17 1984). Briefly, progressively decreasing concentrations of compounds are incubated in the presence of hAR extract (Chang et al. P.N.A.S. Vol. 89, pp. 5546-5950, 1992), hydroxylapatite and 1 nM ^3H-DHT for one hour at 4° C. Subsequently, the binding reactions are washed three times to completely remove excess unbound ^3H-DHT. hAR bound ^3H-DHT levels are determined in the presence of compounds (=competitive binding) and compared to levels bound when no competitor is present (=maximum binding). Compound binding affinity to the hAR is expressed as the concentration of compound at which one half of the maximum binding is inhibited (the IC50).

| Structure (SMILES) | IC50 |
| --- | --- |
| CC[C@H]1CCCCN1c1cc(F)c(C#N)c(F)c1 [Example 2, 4-(2-(S)-Ethyl-piperidin-1-yl)-2,6-difluoro-benzonitrile] | 1.15 nM |
| CC[C@H]1CCCCN1c1ccc(C#N)c(Cl)c1 [Example 3, 2-Chloro-4-(2-(S)-ethyl-piperidin-1-yl)-benzonitrile] | 3.67 nM |
| CC[C@H]1CCCCN1c1ccc(C#N)c(C#N)c1 [Example 4, 4-(2-(S)-Ethyl-piperidin-1-yl)-phthalonitrile] | 7.75 nM |
| CCC1CCCCN1c1ccc(C#N)c(C#N)c1 (stereo not shown) [Example 5, 4-(2-Ethyl-piperidin-1-yl)-phthalonitrile] | 5.35 nM |
| CCC1CCCCN1c1ccc(C#N)c(C(F)(F)F)c1 (stereo not shown) [Example 6, 4-(2-Ethyl-piperidin-1-yl)-2-trifluoromethyl-benzonitrile] | 1.83 nM |
| CC[C@@H](C)N(CC)c1ccc(C#N)c(Cl)c1 [Example 8, 4-((R)-sec-Butyl-ethyl-amino)-2-chloro-benzonitrile] | 1.4 nM |
| CC[C@@H](C)N(C)c1ccc(C#N)c(Cl)c1 [Example 9, 4-((R)-sec-Butyl-methyl-amino)-2-chloro-benzonitrile] | 3.63 nM |
| CCCN(c1ccc(C#N)c(Cl)c1)[C@H](C)CC [Example 10, 4-((R)-sec-Butyl-propyl-amino)-2-chloro-benzonitrile] | 3.28 nM |
| CCCN(c1ccc(C#N)c(C#N)c1)[C@H](C)CC [Example 11, 4-((R)-sec-Butyl-propyl-amino)-phthalonitrile] | 8 nM |
| CC[C@@H](C)N(CC)c1ccc(C#N)c(C(F)(F)F)c1 [Example 12, 4-((R)-sec-Butyl-ethyl-amino)-2-trifluoromethyl-benzonitrile] | 3.21 nM |
| CC[C@@H](C)N(C)c1ccc(C#N)c(C#N)c1 [Example 13, 4-((R)-sec-Butyl-methyl-amino)-phthalonitrile] | 2.9 nM |
| CC[C@@H](C)N(CC)c1ccc(C#N)c(C#N)c1 [Example 14] | 3.8 nM |
| CCCN(CCC)c1ccc(C#N)c(C(F)(F)F)c1 [Example 15, 4-Dipropylamino-2-trifluoromethyl-benzonitrile] | 1.68 nM |
| CCN(c1ccc(C#N)c(C#N)c1)C(C)C [Example 16, 4-(Ethyl-isopropyl-amino)-phthalonitrile] | 3.06 nM |
| CCC(C)N(C)c1ccc(C#N)c(C(F)(F)F)c1 (stereo not shown) [Example 17, 4-(sec-Butyl-methyl-amino)-2-trifluoromethyl-benzonitrile] | 3.99 nM |
| CCCN(c1ccc(C#N)c(C#N)c1)C(C)CC (stereo not shown) [Example 18, 4-(sec-Butyl-propyl-amino)-phthalonitrile] | 2.49 nM |
| CCCN(CCC)c1ccc(C#N)c(C#N)c1 [Example 19, 4-Dipropylamino-phthalonitrile] | 6.44 nM |
| CCN(CC)c1ccc(C#N)c(C(F)(F)F)c1 [Example 20, 4-Diethylamino-2-trifluoromethyl-benzonitrile] | 2.62 nM |
| CCC(C)N(CC)c1ccc(C#N)c(C(F)(F)F)c1 (stereo not shown) [Example 21, 4-(sec-Butyl-ethyl-amino)-2-trifluoromethyl-benzonitrile] | 1.71 nM |
| CCCN(CC)c1ccc(C#N)c(Cl)c1 [Example 22, 2-Chloro-4-(ethyl-propyl-amino)-benzonitrile] | 5.4 nM |
| CC(C)N(C)c1ccc(C#N)c(Cl)c1 [Example 23, 2-Chloro-4-(isopropyl-methyl-amino)-benzonitrile] | 4.21 nM |
| CC(C)[C@@H](C)N(C)c1ccc(C#N)c(Cl)c1 [Example 25, 2-Chloro-4-[(1-(R), 2-dimethyl-propyl)-methyl-amino]-benzonitrile] | 45.6 nM |

| Structure (SMILES) | IC50 |
| --- | --- |
| CC[C@H](C)N(C)c1ccc(C#N)c(C(F)(F)F)c1 [Example 26] | 5.47 nM |
| CC[C@H](C)N(CC)c1ccc(C#N)c(C(F)(F)F)c1 [Example 27, 4-((S)-sec-Butyl-ethyl-amino)-2-trifluoromethyl-benzonitrile] | 7.32 nM |
| CC1CCCN1c1ccc(C#N)c(C(F)(F)F)c1 (stereo not shown) [Example 28, 4-(2-Methyl-pyrrolidin-1-yl)-2-trifluoromethyl-benzonitrile] | 1.5 nM |
| CCCC1CCCCN1c1ccc(C#N)c(C(F)(F)F)c1 (stereo not shown) [Example 30, 4-(2-Propyl-piperidin-1-yl)-2-trifluoromethyl-benzonitrile] | 2.33 nM |
| CCC1CC(CO)CCN1c1ccc(C#N)c(C(F)(F)F)c1 (stereo not shown) [Example 31, 4-(2-Ethyl-4-hydroxymethyl-piperidin-1-yl)-2-trifluoromethyl-benzonitrile] | 9.63 nM |
| CCCN(c1ccc(C#N)c(C(F)(F)F)c1)[C@H](C)CC [Example 32, 4-((R)-sec-Butyl-propyl-amino)-2-trifluoromethyl-benzonitrile] | 5.97 nM |
| C=CCN(C)c1ccc(C#N)c(C(F)(F)F)c1 [Example 33, 4-(Allyl-methyl-amino)-2-trifluoromethyl-benzonitrile] | 3.82 nM |
| CC1CCCCN1c1ccc(C#N)c(C(F)(F)F)c1 (stereo not shown) [Example 34, 4-(2-Methyl-piperidin-1-yl)-2-trifluoromethyl-benzonitrile] | 24.8 nM |
| CCOC[C@H]1CCCN1c1ccc(C#N)c(C(F)(F)F)c1 [Example 35, 4-(2(R)-(Ethoxy-methyl)-pyrrolidin-1-yl)-2-trifluoromethyl-benzonitrile] | 2.07 nM |
| N#Cc1ccc(N2CCCCC2CCO)cc1C(F)(F)F (stereo not shown) [Example 36, 4-(2-(2-Hydroxyethyl)-piperidin-1-yl)-2-trifluoromethyl-benzonitrile] | 27.7 nM |
| COC[C@H]1CCCN1c1ccc(C#N)c(C(F)(F)F)c1 [Example 37, 4-(2(R)-(Methoxy-methyl)-pyrrolidin-1-yl)-2-trifluoromethyl-benzonitrile] | 10.1 nM |
| CCCCCN(CC)c1ccc(C#N)c(C(F)(F)F)c1 [Example 38, 4-(Ethyl-pentyl-amino)-2-trifluoromethyl-benzonitrile] | 11.6 nM |
| CCCCN(CCC)c1ccc(C#N)c(C(F)(F)F)c1 [Example 39, 4-(Butyl-propyl-amino)-2-trifluoromethyl-benzonitrile] | 2 nM |
| CC(C)N(C)c1ccc(C#N)c(C(F)(F)F)c1 [Example 40, 4-(Isopropyl-methyl-amino)-2-trifluoromethyl-benzonitrile] | 0.99 nM |
| CCCCCN(CCC)c1ccc(C#N)c(C(F)(F)F)c1 [Example 41, 4-(Pentyl-propyl-amino)-2-trifluoromethyl-benzonitrile] | 9.39 nM |
| N#Cc1ccc(N2CCCCC2CO)cc1C(F)(F)F (stereo not shown) [Example 42, 4-(2-Hydroxymethyl-piperidin-1-yl)-2-trifluoromethyl-benzonitrile] | 15.3 nM |
| CCCCN(CC)c1ccc(C#N)c(C(F)(F)F)c1 [Example 43, 4-(Butyl-ethyl-amino)-2-trifluoromethyl-benzonitrile] | 7.58 nM |
| CCCCN(CCCC)c1ccc(C#N)c(C(F)(F)F)c1 [Example 44, 4-(Dibutyl-amino)-2-trifluoromethyl-benzonitrile] | 12.8 nM |
| N#Cc1ccc(N2CCC[C@@H]2CO)cc1C(F)(F)F [Example 45, 4-(2(R)-(Hydroxy-methyl)-pyrrolidin-1-yl)-2-trifluoromethyl-benzonitrile] | 22.7 nM |
| CCCN(c1ccc(C#N)c(Cl)c1)C(C)C [Example 46, 2-Chloro-4-(isopropyl-propyl-amino)-benzonitrile] | 9.79 nM |
| CCN(CC)c1ccc(C#N)c(Cl)c1 [Example 47, 2-Chloro-4-(diethyl-amino)-benzonitrile] | 2.98 nM |
